These are literature values, as cited in Sander's compilation of Henry's law constants.

The structures appear in SMILES notation. “And” between values parts separate entries of the source, which are not always exact repeats. Equal values may be shown once.

The nature of the data set: Henry solubility constant Hcp at 298.15 K (mol/(m3 Pa)). The conditions noted are these: cited value.
Setting [1] is: reference: Burkholder et al. (2015).
The mark [2] stands for this setting: reference: Burkholder et al. (2019).
[3] abbreviates: reference: Sander et al. (2006).
Setting [4] is: reference: Sander et al. (2011).
Where [5] appears, read: reference: Fogg and Sangster (2003).
Setting [6] is: reference: Barcelo and Hennion (1997).
Setting [7] is: reference: Petrasek et al. (1983).

Regarding `CBr` [bromomethane], the “Henry solubility constant Hcp” value is 0.0015 (reference: Brockbank (2013)); 0.0017 under setting [1]; 0.0015 under setting [2]; 4.4e-05 (reference: Goldstein (1982)); 0.0017 under setting [3]; 0.0017 under setting [4].

In the case of `C=CCN(CC=C)CC=C` [N,N-di-2-propenyl-2-propen-1-amine], the “Henry solubility constant Hcp” value (reference: Brockbank (2013)) was 0.039.

`CCCCI` [1-iodobutane]: the “Henry solubility constant Hcp” value (reference: Brockbank (2013)) is 0.00069. Regarding `Brc1ccccc1` [bromobenzene], the “Henry solubility constant Hcp” value is 0.0043 (reference: Brockbank (2013)), 0.005 under setting [5] and 0.0047 (reference: HSDB (2015)). For `CCSC(=O)N(CC(C)C)CC(C)C` [butylate], the “Henry solubility constant Hcp” value under setting [6] is 0.018. Take `CCCCCCC=O` [heptanal]: where the note is “reference: Brockbank (2013)”, the “Henry solubility constant Hcp” value was 0.034.

As for `CC(=O)C(Cl)Cl` [1,1-dichloro-2-propanone], the “Henry solubility constant Hcp” value under setting [1] was 0.33 and the “Henry solubility constant Hcp” value under setting [2] is 0.33.

As for `CCCCC(=O)CC` [3-heptanone], the “Henry solubility constant Hcp” value (reference: Brockbank (2013)) was 0.072. For the compound `ClC1C(Cl)C(Cl)C(Cl)C(Cl)C1Cl` (configuration not stated) [γ-1,2,3,4,5,6-hexachlorocyclohexane], the “Henry solubility constant Hcp” value is, setting by setting: (reference: McCarty (1980)) 31; (reference: Xiao et al. (2004)) 3.7 and 3.3.

Turning to `CCCCC(O)CC` (configuration not stated) [3-heptanol], the “Henry solubility constant Hcp” value (reference: Brockbank (2013)) is 0.32. Consider `Cc1ccc(C)c(C)c1` [1,2,4-trimethylbenzene], for which the “Henry solubility constant Hcp” value is 0.0016 (reference: Brockbank (2013)) and 0.0017 under setting [5]. For the compound `COP(=S)(OC)Oc1ccc(SC)c(C)c1` [fenthion], the “Henry solubility constant Hcp” value under setting [6] is 0.45.

For the compound `N#Cc1c(Cl)cccc1Cl` [2,6-dichlorobenzenenitrile], the “Henry solubility constant Hcp” value under setting [6] was 0.015.

Take `ClC(Cl)=C(Cl)C(Cl)=C(Cl)Cl` [hexachlorobutadiene]: the “Henry solubility constant Hcp” value by setting is: (reference: Brockbank (2013)) 0.00056; under setting [5], 0.00083; (reference: Goldstein (1982)) 0.00098; (reference: Horvath and Getzen (1999)) 0.00096. `COO` [methyl hydroperoxide]: the “Henry solubility constant Hcp” value was 3 (reference: Brockbank (2013)); 3 under setting [1]; 3 under setting [2]; 3 under setting [3]; 3 under setting [4]. For the compound `CCCC=O` [butanal], the “Henry solubility constant Hcp” value is, setting by setting: (reference: Brockbank (2013)) 0.091; under setting [1], 0.095; under setting [2], 0.095; under setting [3], 0.095; under setting [4], 0.095. Take `ClCC1CO1` (configuration not stated) [(chloromethyl)-oxirane]: under “reference: Goldstein (1982)”, the “Henry solubility constant Hcp” value is 0.28. Consider `CCCCC(C=O)CC` (configuration not stated) [2-ethylhexanal], for which, under “reference: Brockbank (2013)”, the “Henry solubility constant Hcp” value is 0.012. Take `c1ccc2ccccc2c1` [naphthalene]: the “Henry solubility constant Hcp” value by setting is: (reference: Brockbank (2013)) 0.021; under setting [5], 0.022; (reference: Goldstein (1982)) 0.021; (reference: McCarty (1980)) 0.027. Take `CCCCC(=O)CCCC` [5-nonanone]: the “Henry solubility constant Hcp” value (reference: Brockbank (2013)) is 0.04. Consider `CC1=CC(=O)CC(C)(C)C1` [3,5,5-trimethyl-2-cyclohexen-1-one], for which the “Henry solubility constant Hcp” value (reference: Goldstein (1982)) is 1.7.

As to `CCc1ccc2ccccc2c1` [2-ethylnaphthalene], the “Henry solubility constant Hcp” value (reference: Mackay et al. (1992b)) is 0.013. On to `ClCCCCCl` [1,4-dichlorobutane], for which the “Henry solubility constant Hcp” value (reference: Brockbank (2013)) is 0.02. Consider `Fc1c(F)c(F)c(F)c(F)c1F` [hexafluorobenzene], for which the “Henry solubility constant Hcp” value (reference: Brockbank (2013)) is 0.0003. As to `CCCI` [1-iodopropane], the “Henry solubility constant Hcp” value (reference: Brockbank (2013)) was 0.0011. With `CC(C)C` [2-methylpropane], the “Henry solubility constant Hcp” value is 9.1e-06 under setting [1]; 9.1e-06 under setting [2]; 9.1e-06 (reference: Hayduk (1986)); 9.1e-06 under setting [3]; 9.1e-06 under setting [4]. `CCCCCCCCCCc1ccccc1` [decylbenzene]: the “Henry solubility constant Hcp” value (reference: Brockbank (2013)) is 7.6e-05. Turning to `CCCCOC(=O)CCC` [butyl butanoate], where the note is “reference: Brockbank (2013)”, the “Henry solubility constant Hcp” value is 0.017. Take `Cc1ccccc1O` [1-hydroxy-2-methylbenzene]: the “Henry solubility constant Hcp” value (reference: Brockbank (2013)) is 6.7; the “Henry solubility constant Hcp” value (reference: Gaffney and Senum (1984)) was 8.2; the “Henry solubility constant Hcp” value (reference: Howard (1989)) is 6.2. On to `O=C(O)c1ccccc1` [benzenecarboxylic acid], for which the “Henry solubility constant Hcp” value was 140 (reference: Goldstein (1982)) and 140 (reference: Howard (1989)). For `Cc1ccc(Cl)cc1Cl` [2,4-dichloro-1-methylbenzene], the “Henry solubility constant Hcp” value (reference: Brockbank (2013)) is 0.0027. On to `Cc1ccccc1N` [2-methylbenzenamine], for which the “Henry solubility constant Hcp” value (reference: Brockbank (2013)) was 4.8. On to `CCc1ccccc1N` [2-ethylaniline], for which the “Henry solubility constant Hcp” value (reference: Brockbank (2013)) was 2.6. For the compound `CCCC(C)O` (configuration not stated) [2-pentanol], under “reference: Brockbank (2013)”, the “Henry solubility constant Hcp” value is 0.67. For the compound `CC(C)Br` [2-bromopropane], the “Henry solubility constant Hcp” value (reference: Brockbank (2013)) is 0.0009. `Clc1cccc(Cl)c1` [1,3-dichlorobenzene]: the “Henry solubility constant Hcp” value was 0.0031 (reference: Brockbank (2013)), 0.0034 under setting [5] and 0.0039 (reference: Goldstein (1982)). On to `C1=Cc2cccc3cccc1c23` [acenaphthylene], for which the “Henry solubility constant Hcp” value was 0.085 (reference: Brockbank (2013)) and 0.091 under setting [5]. Take `[O]N=O` [nitrogen dioxide]: the “Henry solubility constant Hcp” value is, setting by setting: under setting [1], 0.00012; under setting [2], 0.00012; under setting [3], 0.00014; under setting [4], 0.00012; (reference: Schwartz and White (1981)) 0.00012. For `c1ccc2c(c1)ccc1ccccc12` [phenanthrene], the “Henry solubility constant Hcp” value was 0.34 (reference: Brockbank (2013)), 0.23 under setting [5], 0.093 (reference: Goldstein (1982)) and 0.076 (reference: McCarty (1980)).

Consider `CNC(=O)Oc1cccc2c1OC(C)(C)C2` [carbofuran], for which the “Henry solubility constant Hcp” value under setting [6] was 19. Consider `CCCCCOC(=O)CCC` [pentyl butanoate], for which the “Henry solubility constant Hcp” value (reference: Brockbank (2013)) is 0.017. In the case of `Cc1cccc(N)c1` [3-methylbenzenamine], the “Henry solubility constant Hcp” value (reference: Brockbank (2013)) was 5.6. For the compound `CC(C)COC=O` [(2-methylpropyl)-methanoate], the “Henry solubility constant Hcp” value (reference: Brockbank (2013)) is 0.016. For `CC(C)CC(C)C` [2,4-dimethylpentane], where the note is “reference: Brockbank (2013)”, the “Henry solubility constant Hcp” value is 2.9e-06. Consider `c1ccc2c(c1)ccc1c3ccccc3ccc21` [chrysene], for which the “Henry solubility constant Hcp” value reads like this: (reference: Brockbank (2013)) 15; under setting [7], 6.6. As for `C/C=C/CCCC` [trans-2-heptene], the “Henry solubility constant Hcp” value (reference: Brockbank (2013)) was 2.4e-05. Consider `Cc1cc(C)cc(C)c1` [1,3,5-trimethylbenzene], for which the “Henry solubility constant Hcp” value (reference: Brockbank (2013)) is 0.0012. As for `CNC(=O)Oc1ccccc1OC(C)C` [propoxur], the “Henry solubility constant Hcp” value under setting [6] is 0.076. In the case of `CNC(=O)O/N=C/C(C)(C)SC` [aldicarb], under setting [6], the “Henry solubility constant Hcp” value is 31. Take `Cc1cccc(C)c1N(Cn1cccn1)C(=O)CCl` [metazachlor]: the “Henry solubility constant Hcp” value under setting [6] was 13. Take `CCOCCOC(C)=O` [2-ethoxyethyl ethanoate]: the “Henry solubility constant Hcp” value (reference: Brockbank (2013)) was 3. As for `COC(=O)C(C)C` [methyl 2-methylpropanoate], the “Henry solubility constant Hcp” value (reference: Brockbank (2013)) was 0.026. On to `CCCCC(CC)COC(=O)c1ccccc1C(=O)OCC(CC)CCCC` (configuration not stated) [bis(2-ethylhexyl)-phthalate], for which the “Henry solubility constant Hcp” value under setting [7] is 82. For `ClBr` [bromine chloride], the “Henry solubility constant Hcp” value reads like this: under setting [1], 0.0097; under setting [2], 0.0097; under setting [3], 0.0097; under setting [4], 0.0097. Turning to `C1=CCCCCC1` [cycloheptene], the “Henry solubility constant Hcp” value (reference: Brockbank (2013)) is 0.0002. Consider `N#Cc1ccccc1` [benzenenitrile], for which the “Henry solubility constant Hcp” value (reference: Brockbank (2013)) is 0.35. As for `CCCC[N+](=O)[O-]` [1-nitrobutane], where the note is “reference: Brockbank (2013)”, the “Henry solubility constant Hcp” value is 0.076. In the case of `FC(F)(Cl)Cl` [dichlorodifluoromethane], the “Henry solubility constant Hcp” value is 3.1e-05 (reference: Brockbank (2013)); 3e-05 under setting [1]; 3e-05 under setting [2]; 3.5e-06 (reference: Goldstein (1982)); 3e-05 under setting [3]; 3e-05 under setting [4]. `O=C(O)C(Cl)Cl` [dichloroethanoic acid]: the “Henry solubility constant Hcp” value reads like this: under setting [1], 1200; under setting [2], 1200; under setting [4], 1200. Turning to `CCC(=O)OC` [methyl propanoate], the “Henry solubility constant Hcp” value (reference: Brockbank (2013)) is 0.058. Regarding `CCCCOCCOC(C)=O` [2-butoxyethyl ethanoate], the “Henry solubility constant Hcp” value (reference: Brockbank (2013)) is 1.8. For the compound `CCC(=O)CC` [3-pentanone], the “Henry solubility constant Hcp” value reads like this: (reference: Brockbank (2013)) 0.089; (reference: Cabani et al. (1981)) 0.13; (reference: Howard (1993)) 0.11. For `CCCCOC` [methyl butyl ether], the “Henry solubility constant Hcp” value (reference: Brockbank (2013)) is 0.0066.
